Assays:
[1] = test system: human umbilical vein endothelial cells (HUVEC); assay: Cell viability of normal cells (HUVEC), 3-day treatment; type: cell-based; settings: 3 days, FIG. 2A
From the text: (§1) In this example, the effect of the lipid nanoparticle on the growth of normal cells is investigated.
(§2) Dox represents doxorubicin; Tetrac represents tetraiodothyroacetic acid.

[2] = test system: monkey kidney epithelial cells (Vero); assay: Cell viability of normal cells (Vero), 3-day treatment; type: cell-based; settings: 3 days, FIG. 2A
From the text: as §1, §2

## O=C(O)Cc1cc(I)c(Oc2cc(I)c(O)c(I)c2)c(I)c1 [Tetrac, tetraiodothyroacetic acid]
[1]
  cell viability / growth of normal cells: do not affect the growth of normal cells
[2]
  cell viability / growth of normal cells: do not affect the growth of normal cells
